Test results reported in PMC5218480 (PLoS ONE, 2017).

System: MV-4-11 cells
Assay: Gene expression microarray analysis (Affymetrix PrimeView) and GSEA
Type: cell-based, human
Set-up: RFU PODN (11730768_x_at) / Fold change /veh PODN (11730768_x_at) / RFU LINC00158 (11744669_a_at) / Fold change /veh LINC00158 (11744669_a_at) / RFU DUSP10 (11751237_a_at) / Fold change /veh DUSP10 (11751237_a_at) / RFU ID3 (11757404_x_at) / Fold change /veh ID3 (11757404_x_at) / RFU PLEKHG5 (11737974_s_at) / Fold change /veh PLEKHG5 (11737974_s_at) / RFU LRRC4B (11730491_at) / Fold change /veh LRRC4B (11730491_at) / RFU GIMAP4 (11747438_a_at) / Fold change /veh GIMAP4 (11747438_a_at) / RFU KRT8 (11758183_x_at) / Fold change /veh KRT8 (11758183_x_at) / RFU CNN1 (11734310_a_at) / Fold change /veh CNN1 (11734310_a_at) / RFU VPS37D (11726825_at) / Fold change /veh VPS37D (11726825_at) / RFU C10orf10 (11716522_x_at) / Fold change /veh C10orf10 (11716522_x_at) / RFU KIR2DL2 /// KIR2DL4 /// KIR2DL5A /// KIR2DL5B /// KIR2DS1 /// KIR2DS2 /// KIR2DS3 /// KIR2DS4 /// KIR3DL3 /// KIR3DL3 /// KIR3DS1 (11738374_at) / Fold change /veh KIR2DL2 /// KIR2DL4 /// KIR2DL5A /// KIR2DL5B /// KIR2DS1 /// KIR2DS2 /// KIR2DS3 /// KIR2DS4 /// KIR3DL3 /// KIR3DL3 /// KIR3DS1 (11738374_at) / RFU C1QL1 (11718748_at) / Fold change /veh C1QL1 (11718748_at) / RFU TMPRSS4 (11747572_a_at) / Fold change /veh TMPRSS4 (11747572_a_at) / RFU HAMP (11756126_x_at) / Fold change /veh HAMP (11756126_x_at) / RFU RNFT2 (11725882_a_at) / Fold change /veh RNFT2 (11725882_a_at) / RFU NR4A2 (11747474_a_at) / Fold change /veh NR4A2 (11747474_a_at) / RFU ABCC12 (11746883_a_at) / Fold change /veh ABCC12 (11746883_a_at) / RFU TMEM136 (11760407_x_at) / Fold change /veh TMEM136 (11760407_x_at) / RFU CLDN22 /// WWC2 (11732394_at) / Fold change /veh CLDN22 /// WWC2 (11732394_at) / RFU HLA-DPB1 (11760878_x_at) / Fold change /veh HLA-DPB1 (11760878_x_at) / RFU SPINT1 (11716480_a_at) / Fold change /veh SPINT1 (11716480_a_at) / RFU GAP43 (11754022_s_at) / Fold change /veh GAP43 (11754022_s_at) / RFU A4GNT (11735810_at) / Fold change /veh A4GNT (11735810_at) / RFU PRB3 (11715151_x_at) / Fold change /veh PRB3 (11715151_x_at) / RFU TUBB4B (11761932_at) / Fold change /veh TUBB4B (11761932_at) / RFU CAPN14 (11732068_a_at) / Fold change /veh CAPN14 (11732068_a_at) / RFU TMCC2 (11721928_a_at) / Fold change /veh TMCC2 (11721928_a_at) / RFU IRGQ (11745062_a_at) / Fold change /veh IRGQ (11745062_a_at) / RFU FAM174B (11720279_a_at) / Fold change /veh FAM174B (11720279_a_at) / RFU TMPRSS4 (11748680_a_at) / Fold change /veh TMPRSS4 (11748680_a_at) / RFU FAM212B (11763350_a_at) / Fold change /veh FAM212B (11763350_a_at) / RFU PLEKHG5 (11743358_a_at) / Fold change /veh PLEKHG5 (11743358_a_at) / RFU ZSCAN30 (11745921_a_at) / Fold change /veh ZSCAN30 (11745921_a_at) / RFU CMKLR1 (11741424_a_at) / Fold change /veh CMKLR1 (11741424_a_at) / RFU LOC101060620 /// MAPK8IP1 (11723275_at) / Fold change /veh LOC101060620 /// MAPK8IP1 (11723275_at) / RFU SPTSSB (11747773_x_at) / Fold change /veh SPTSSB (11747773_x_at) / RFU PRSS12 (11739890_at) / Fold change /veh PRSS12 (11739890_at) / RFU BIN1 (11741810_x_at) / Fold change /veh BIN1 (11741810_x_at) / RFU WNT11 (11732464_a_at) / Fold change /veh WNT11 (11732464_a_at) / RFU C10orf10 (11716521_a_at) / Fold change /veh C10orf10 (11716521_a_at) / RFU C5orf56 (11738089_at) / Fold change /veh C5orf56 (11738089_at) / RFU CYB561 (11721691_x_at) / Fold change /veh CYB561 (11721691_x_at) / RFU ANKRD19P (11752326_a_at) / Fold change /veh ANKRD19P (11752326_a_at) / RFU OR2T12 /// OR2T33 /// OR2T8 (11738714_s_at) / Fold change /veh OR2T12 /// OR2T33 /// OR2T8 (11738714_s_at) / RFU VCAN (11748164_a_at) / Fold change /veh VCAN (11748164_a_at) / RFU JSRP1 (11732532_at) / Fold change /veh JSRP1 (11732532_at) / RFU KRTAP10-11 (11738290_x_at) / Fold change /veh KRTAP10-11 (11738290_x_at) / RFU MYO3A (11730013_a_at) / Fold change /veh MYO3A (11730013_a_at) / RFU EBF3 (11725865_a_at) / Fold change /veh EBF3 (11725865_a_at) / RFU CAMK2N1 (11719241_x_at) / Fold change /veh CAMK2N1 (11719241_x_at) / RFU C5orf56 (11738088_a_at) / Fold change /veh C5orf56 (11738088_a_at) / RFU OLFML3 (11715873_a_at) / Fold change /veh OLFML3 (11715873_a_at) / RFU LOC100653217 /// NTM (11731650_a_at) / Fold change /veh LOC100653217 /// NTM (11731650_a_at) / RFU MAPK11 (11762145_a_at) / Fold change /veh MAPK11 (11762145_a_at) / RFU FIZ1 (11724087_x_at) / Fold change /veh FIZ1 (11724087_x_at) / RFU OASL (11726364_x_at) / Fold change /veh OASL (11726364_x_at) / RFU SOX15 (11748057_x_at) / Fold change /veh SOX15 (11748057_x_at) / RFU CD79A (11719716_a_at) / Fold change /veh CD79A (11719716_a_at) / RFU HIST1H1D (11736915_at) / Fold change /veh HIST1H1D (11736915_at) / RFU CASKIN2 (11723855_a_at) / Fold change /veh CASKIN2 (11723855_a_at) / RFU LOC730098 (11760151_x_at) / Fold change /veh LOC730098 (11760151_x_at) / RFU OR4N2 (11742367_at) / Fold change /veh OR4N2 (11742367_at) / RFU PRRT2 (11749266_a_at) / Fold change /veh PRRT2 (11749266_a_at) / RFU SNX32 (11753110_a_at) / Fold change /veh SNX32 (11753110_a_at) / RFU CDHR5 (11726645_a_at) / Fold change /veh CDHR5 (11726645_a_at) / RFU RCAN1 (11760418_a_at) / Fold change /veh RCAN1 (11760418_a_at) / RFU FAM167A (11723789_a_at) / Fold change /veh FAM167A (11723789_a_at) / RFU FAM26E (11764081_at) / Fold change /veh FAM26E (11764081_at) / RFU ISYNA1 (11749810_s_at) / Fold change /veh ISYNA1 (11749810_s_at) / RFU ACY1 (11761880_at) / Fold change /veh ACY1 (11761880_at) / RFU 11764098_at / Fold change /veh 11764098_at / RFU SAMD14 (11745864_x_at) / Fold change /veh SAMD14 (11745864_x_at) / RFU NPB (11741838_a_at) / Fold change /veh NPB (11741838_a_at) / RFU TMPRSS6 (11731388_a_at) / Fold change /veh TMPRSS6 (11731388_a_at) / RFU KRTAP10-2 (11738614_at) / Fold change /veh KRTAP10-2 (11738614_at) / RFU ARHGAP8 /// PRR5-ARHGAP8 (11727945_x_at) / Fold change /veh ARHGAP8 /// PRR5-ARHGAP8 (11727945_x_at) / RFU KRTAP5-7 /// NADSYN1 (11734609_at) / Fold change /veh KRTAP5-7 /// NADSYN1 (11734609_at) / RFU RASL12 (11751679_a_at) / Fold change /veh RASL12 (11751679_a_at) / RFU CDKN2B (11736163_a_at) / Fold change /veh CDKN2B (11736163_a_at) / RFU PRF1 (11729649_at) / Fold change /veh PRF1 (11729649_at) / RFU, ZNF638 /// ZNF638-IT1 / Fold change vs veh, ZNF638 /// ZNF638-IT1 / RFU, PANK3 / Fold change vs veh, PANK3 / RFU, SH3YL1 / Fold change vs veh, SH3YL1 / RFU, ZEB2 / Fold change vs veh, ZEB2 / RFU, NRIP1 / Fold change vs veh, NRIP1 / RFU, PTTG1IP / Fold change vs veh, PTTG1IP / RFU, CAPN2 / Fold change vs veh, CAPN2 / RFU, MED14 / Fold change vs veh, MED14 / RFU, SNORA58 / Fold change vs veh, SNORA58 / RFU, C1orf63 / Fold change vs veh, C1orf63 / RFU, LRRFIP1 / Fold change vs veh, LRRFIP1 / RFU, NDUFAF7 / Fold change vs veh, NDUFAF7 / RFU, SLC12A2 / Fold change vs veh, SLC12A2 / RFU, IBTK / Fold change vs veh, IBTK / RFU, ESF1 / Fold change vs veh, ESF1 / Fold change vs veh, TMEM50B / RFU, TAOK1 / Fold change vs veh, TAOK1 / RFU, ACBD3 / Fold change vs veh, ACBD3 / RFU, TMA16 / Fold change vs veh, TMA16 / RFU, RWDD3 / Fold change vs veh, RWDD3 / RFU, BCAT1 / Fold change vs veh, BCAT1 / RFU, EDEM3 / Fold change vs veh, EDEM3 / RFU, TMEM33 / Fold change vs veh, TMEM33 / RFU, WDR75 / Fold change vs veh, WDR75 / RFU, AHCTF1 / Fold change vs veh, AHCTF1 / RFU, TFRC / Fold change vs veh, TFRC / RFU, ZDHHC17 / Fold change vs veh, ZDHHC17 / RFU, NOM1 / Fold change vs veh, NOM1 / RFU, ARL8B / Fold change vs veh, ARL8B / RFU, ZBTB11 / Fold change vs veh, ZBTB11 / RFU, TAMM41 / Fold change vs veh, TAMM41 / RFU, KIAA1704 /// LOC100996395 / Fold change vs veh, KIAA1704 /// LOC100996395 / RFU, ING1 / Fold change vs veh, ING1 / RFU, TRMT61B / Fold change vs veh, TRMT61B / RFU, FUBP3 / Fold change vs veh, FUBP3 / RFU, TP53 / Fold change vs veh, TP53 / RFU, TNKS2 / Fold change vs veh, TNKS2 / RFU, ZFP14 / Fold change vs veh, ZFP14 / RFU, ACTR2 / Fold change vs veh, ACTR2 / RFU, PPP3R1 / Fold change vs veh, PPP3R1 / RFU, PIK3R1 / Fold change vs veh, PIK3R1 / RFU, HNRNPA1 / Fold change vs veh, HNRNPA1 / RFU, RNF170 / Fold change vs veh, RNF170 / RFU, ZNF28 / Fold change vs veh, ZNF28 / RFU, RNGTT / Fold change vs veh, RNGTT / RFU, OGT / Fold change vs veh, OGT / RFU, BRD1 / Fold change vs veh, BRD1 / RFU, MARS / Fold change vs veh, MARS / RFU, ZNF655 / Fold change vs veh, ZNF655 / RFU, FAHD1 / Fold change vs veh, FAHD1 / RFU, BDP1 / Fold change vs veh, BDP1 / RFU, LRRCC1 / Fold change vs veh, LRRCC1 / RFU, ARID1A / Fold change vs veh, ARID1A / RFU, ZNF146 / Fold change vs veh, ZNF146 / RFU, ZNF330 / Fold change vs veh, ZNF330 / RFU, GPN3 / Fold change vs veh, GPN3 / RFU, C9orf123 / Fold change vs veh, C9orf123 / RFU, N4BP2L2 / Fold change vs veh, N4BP2L2 / RFU, ARFIP1 / Fold change vs veh, ARFIP1 / RFU, FAM179B / Fold change vs veh, FAM179B / RFU, BCL10 / Fold change vs veh, BCL10 / RFU, UHRF1BP1L / Fold change vs veh, UHRF1BP1L / RFU, BET1 / Fold change vs veh, BET1 / RFU, CNOT2 / Fold change vs veh, CNOT2 / RFU, ZNF268 / Fold change vs veh, ZNF268 / Fold change vs veh, ZNF507 / RFU, DGCR2 / Fold change vs veh, DGCR2 / RFU, WDSUB1 / Fold change vs veh, WDSUB1 / Fold change vs veh, HSP90B1 /// MIR3652 / RFU, ADSS / Fold change vs veh, ADSS / RFU, GK / Fold change vs veh, GK / RFU, ZNF148 / Fold change vs veh, ZNF148 / RFU, TAF9 / Fold change vs veh, TAF9 / RFU, SLC1A5 / Fold change vs veh, SLC1A5 / RFU, SLMO2 / Fold change vs veh, SLMO2 / RFU, ABCC4 / Fold change vs veh, ABCC4 / RFU, LOC101060439 /// RAP1B / Fold change vs veh, LOC101060439 /// RAP1B / RFU, RFX7 / Fold change vs veh, RFX7 / RFU, GTPBP10 / Fold change vs veh, GTPBP10 / RFU, CNEP1R1 / Fold change vs veh, CNEP1R1 / RFU, BIVM-ERCC5 /// ERCC5 / Fold change vs veh, BIVM-ERCC5 /// ERCC5 / RFU, ILF3 / Fold change vs veh, ILF3 / RFU 11762660_at / Fold change /veh 11762660_at / RFU VCAN (11757783_s_at) / Fold change /veh VCAN (11757783_s_at) / RFU DDX43 (11728927_at) / Fold change /veh DDX43 (11728927_at) / RFU KRT8 (11758188_x_at) / Fold change /veh KRT8 (11758188_x_at) / RFU NKD1 (11759106_at) / Fold change /veh NKD1 (11759106_at) / RFU SRD5A1 (11742802_a_at) / Fold change /veh SRD5A1 (11742802_a_at) / RFU TPSAB1 /// TPSB2 (11721975_s_at) / Fold change /veh TPSAB1 /// TPSB2 (11721975_s_at) / RFU GSTM3 (11746129_a_at) / Fold change /veh GSTM3 (11746129_a_at) / RFU IL23R (11737362_x_at) / Fold change /veh IL23R (11737362_x_at) / RFU TMEM51 (11727254_a_at) / Fold change /veh TMEM51 (11727254_a_at) / RFU PIWIL2 (11732686_x_at) / Fold change /veh PIWIL2 (11732686_x_at) / RFU ORM1 (11744905_x_at) / Fold change /veh ORM1 (11744905_x_at) / RFU CCDC152 (11743942_at) / Fold change /veh CCDC152 (11743942_at) / RFU ECM1 (11717891_a_at) / Fold change /veh ECM1 (11717891_a_at) / RFU IL23R (11748794_a_at) / Fold change /veh IL23R (11748794_a_at) / RFU TNFAIP8L3 (11732012_x_at) / Fold change /veh TNFAIP8L3 (11732012_x_at) / RFU MBOAT4 (11741988_at) / Fold change /veh MBOAT4 (11741988_at) / RFU 11764193_at / Fold change /veh 11764193_at / RFU TMEM53 (11763286_at) / Fold change /veh TMEM53 (11763286_at) / RFU MAGEB2 (11727129_at) / Fold change /veh MAGEB2 (11727129_at) / RFU TMEM200A (11744735_a_at) / Fold change /veh TMEM200A (11744735_a_at) / RFU CCDC152 (11751479_a_at) / Fold change /veh CCDC152 (11751479_a_at) / RFU FAM211A (11726209_a_at) / Fold change /veh FAM211A (11726209_a_at) / RFU RGS16 (11746705_a_at) / Fold change /veh RGS16 (11746705_a_at) / RFU VCAN (11755009_s_at) / Fold change /veh VCAN (11755009_s_at) / RFU RHOB (11743442_s_at) / Fold change /veh RHOB (11743442_s_at) / RFU RGS16 (11720943_a_at) / Fold change /veh RGS16 (11720943_a_at) / RFU RGS16 (11720944_at) / Fold change /veh RGS16 (11720944_at) / RFU, VPS4B / Fold change vs veh, VPS4B / RFU, CREB1 / Fold change vs veh, CREB1 / RFU, DNAJC13 / Fold change vs veh, DNAJC13 / RFU, GNAQ / Fold change vs veh, GNAQ / RFU, CDK5R1 / Fold change vs veh, CDK5R1 / RFU, ZRANB3 / Fold change vs veh, ZRANB3 / RFU, CUL4A / Fold change vs veh, CUL4A / RFU, CCNY / Fold change vs veh, CCNY / RFU, UFL1 / Fold change vs veh, UFL1 / RFU, COG3 / Fold change vs veh, COG3 / RFU, DIAPH2 / Fold change vs veh, DIAPH2 / RFU, SKA2 / Fold change vs veh, SKA2 / RFU, AFF3 / Fold change vs veh, AFF3 / RFU, LMF1 / Fold change vs veh, LMF1 / RFU, IPO11 / Fold change vs veh, IPO11 / RFU, DFFB / Fold change vs veh, DFFB / RFU, FOXP1 / Fold change vs veh, FOXP1 / RFU, CARD8 / Fold change vs veh, CARD8 / RFU, STRN3 / Fold change vs veh, STRN3 / RFU, ADK / Fold change vs veh, ADK / RFU, RASSF2 / Fold change vs veh, RASSF2 / RFU, WIPF1 / Fold change vs veh, WIPF1 / RFU, LARP1B / Fold change vs veh, LARP1B / RFU, RASA1 / Fold change vs veh, RASA1 / RFU, RB1 / Fold change vs veh, RB1 / RFU, PPFIA1 / Fold change vs veh, PPFIA1 / RFU, MAT2A / Fold change vs veh, MAT2A / RFU, CCT5 / Fold change vs veh, CCT5 / RFU, WDR92 / Fold change vs veh, WDR92 / RFU, CUX1 / Fold change vs veh, CUX1 / RFU, TTC7A / Fold change vs veh, TTC7A / RFU, TMEM135 / Fold change vs veh, TMEM135 / RFU, DEPTOR / Fold change vs veh, DEPTOR / RFU, CPM / Fold change vs veh, CPM / RFU, DNAJB6 / Fold change vs veh, DNAJB6 / RFU, CACNA2D3 / Fold change vs veh, CACNA2D3 / RFU, DTX4 / Fold change vs veh, DTX4 / RFU, TFCP2 / Fold change vs veh, TFCP2 / RFU, GMCL1 /// GMCL1P1 / Fold change vs veh, GMCL1 /// GMCL1P1 / RFU, AEBP2 / Fold change vs veh, AEBP2 / RFU, SNHG1 /// SNORD22 /// SNORD25 /// SNORD26 /// SNORD27 /// SNORD28 /// SNORD29 /// SNORD31 / Fold change vs veh, SNHG1 /// SNORD22 /// SNORD25 /// SNORD26 /// SNORD27 /// SNORD28 /// SNORD29 /// SNORD31 / Fold change (Aza/veh), C12orf56 (ProbeSet 11735607_a_at) / Fold change (ACY-1035/veh), C12orf56 (ProbeSet 11735607_a_at) / Fold change (Aza/veh), FGFR1OP (ProbeSet 11751329_s_at) / Fold change (ACY-1035/veh), FGFR1OP (ProbeSet 11751329_s_at) / Fold change (Aza/veh), VPS36 (ProbeSet 11739960_a_at) / Fold change (ACY-1035/veh), VPS36 (ProbeSet 11739960_a_at) / RFU SYPL1 (11715823_x_at) / Fold change /veh SYPL1 (11715823_x_at) / RFU IGFBP7 (11715501_s_at) / Fold change /veh IGFBP7 (11715501_s_at) / RFU REEP3 (11722064_at) / Fold change /veh REEP3 (11722064_at) / RFU IGLL1 (11728026_x_at) / Fold change /veh IGLL1 (11728026_x_at): dose or concentration left out as unconfirmed
Conditions: ProbeSet 11721969_s_at; LIST B

## Nc1ncn([C@@H]2O[C@H](CO)[C@@H](O)[C@H]2O)c(=O)n1 [azacitidine]
  Fold change vs veh, BDP1: 0.86
